These are literature values, as cited in US20250250539A1, “METHOD FOR EVALUATING ACTIVITY OF INHIBITING OR PROMOTING AGGREGATION OF AGGREGATING PROTEINS” (KANEKA CORPORATION, priority 2022, published 2025).

Molecules are shown by their SMILES.

For the data set, the system named is amyloid β protein. The following applies: known cell-free evaluation system.

In the case of `O=C(/C=C/c1ccc(O)c(O)c1)O[C@H](Cc1ccc(O)c(O)c1)C(=O)O` [rosmarinic acid], the “activity of inhibiting aggregation” value is given as “exhibiting activity of inhibiting aggregation”.
